Read-outs that look alike come from different tables or passages of the source.
B1: NODD: HIF-1α amino terminal ODD polypeptide (aa 343-417) with nuclear localisation sequences and c-myc tag, plasmid expressed (protein, UniProt Q16665 343-417, looked up, fragment)
chain: SGIIQHDLIFSLQQTECVLKPVESSDMKMTQLFTKVESEDTSSLFDKLKKEPDALTLLAPAAGDTIISLDFGSND
modifications: NLS and c-myc tag

How the values were obtained:
[1] = test system: HIF-α prolyl-hydroxylase (HIF-PH) of cell extract; assay: Modifying activity (HIF-PH) of cell extract on HIF substrate (Gal/HIF-1α549-582/VP16 or 19:WT), pVHL capture assay; type: biochemical, mammalian
Description: The unlabelled HIF-1α substrate was immunopurified on beads, washed, and aliquots incubated under different test conditions in buffer or cell extract. After further washing, the beads were assayed for ability to interact with 35-S labelled pVHL IVTT (21) which was then visualised by fluorography.
The capture of labelled pVHL by different HIF substrates was monitored after exposure to various test conditions.
We went on to test a series of 2-oxoglutarate analogues which act as competitive inhibitors of this class of enzyme (29) for ability to inhibit HIF-PH as assessed by the ability of cell extracts to modify either HIF polypeptide (19:WT) or a HIF fusion protein (Gal/HIF-1α549-582/VP16) so as to promote pVHL capture. […] In one such experiment the effect of N-oxalylglycine on pVHL capture by a biotinylated HIF polypeptides as substrate was monitored. The WT:19 and 19:Pro564Hyp polypeptides described above were used as substrates. […] The effect of dimethyl-oxalyglycine on HIF-1α expression was also studied. HIF-1α immunoblot analysis of extracts of Hep3B and U2OS cells exposed to dimethyl-oxalylgylcine (0, 0.1 or 1.0 mM) for 6 hours was carried out. […]

[2] = target: T1, HIF-1/VHL-1 interaction promoting activity of worm extract (Caenorhabditis elegans, UniProt G5EBV0); assay: Worm extract modification of C. elegans HIF-1, HA.VHL-1 interaction assay; type: biochemical; settings: antagonized by 5 mM 2-OG
T1 construct: from tissue; host or cells: whole-worm homogenate in hypotonic extraction buffer
T1 sequence (G5EBV0 whole entry): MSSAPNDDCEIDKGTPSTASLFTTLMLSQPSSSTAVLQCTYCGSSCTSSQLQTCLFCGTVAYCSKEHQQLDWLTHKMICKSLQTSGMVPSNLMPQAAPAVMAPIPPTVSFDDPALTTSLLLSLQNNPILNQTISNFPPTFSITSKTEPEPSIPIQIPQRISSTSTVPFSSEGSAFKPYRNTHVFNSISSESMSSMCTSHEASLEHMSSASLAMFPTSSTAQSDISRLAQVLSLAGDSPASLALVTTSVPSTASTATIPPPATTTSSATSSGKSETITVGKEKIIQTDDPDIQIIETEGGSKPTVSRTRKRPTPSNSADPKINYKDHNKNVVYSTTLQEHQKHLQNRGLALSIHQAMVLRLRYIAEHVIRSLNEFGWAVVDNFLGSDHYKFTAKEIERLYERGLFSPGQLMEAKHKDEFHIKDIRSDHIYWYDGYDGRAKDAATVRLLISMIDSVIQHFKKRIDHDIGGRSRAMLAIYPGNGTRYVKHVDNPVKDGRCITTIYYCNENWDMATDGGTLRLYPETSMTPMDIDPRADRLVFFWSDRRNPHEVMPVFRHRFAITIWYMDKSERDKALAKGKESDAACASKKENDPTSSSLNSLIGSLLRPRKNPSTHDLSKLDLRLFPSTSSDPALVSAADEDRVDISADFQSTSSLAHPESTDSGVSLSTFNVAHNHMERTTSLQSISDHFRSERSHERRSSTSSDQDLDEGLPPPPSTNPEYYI
Description: Assays for interaction between recombinant VHL and HIF polypeptides conformed to the following experimental design. Recombinant VHL and HIF polypeptides were produced separately in vitro. The HIF polypeptide was then pre-incubated with extract or a recombinant enzyme as described below, then mixed with VHL and incubated in EBC buffer (50 mM Tris pH 7.5, 150 mM NaCl, 0.5% v/v Igepal, 0.5 mM EDTA) at 4° C. for 1 hour, before immunoprecipitation with anti HA antibodies (for HA tagged VHL) or anti Gal antibodies (for Gal4HIF fusions) and analysis by PAGE (Jaakkola et al. (2001) supra).
Preincubation of C. elegans HIF-1 with worm extract or recombinant EGL-9 was for 30 min at 25° C. Preincubation of mammalian HIF-α polypeptides with cell extract or recombinant enzymes was at 37° C. for 10-30 min unless otherwise stated. For assays of recombinant enzymes, 2-oxoglutarate (2 mM), iron (100 μM), and ascorbate (2 mM) were added to the reaction buffer unless otherwise indicated. Reactions performed in hypoxia were in the stated atmospheric oxygen concentration (balance nitrogen) obtained using a controlled environment Invivo2 400 hypoxia work-station (Ruskinn Technologies) and buffers pre-equilibrated with the appropriate atmosphere. Reactions (50 μl) were performed in open Eppendorf tubes with mixing and stopped by the addition of 20 volumes desferrioxamine (100 μM}. […]

[3] = test system: HIF hydroxylase (HPH activity); assay: HIF hydroxylase (HPH) inhibition, statements of the description; type: biochemical
clavaminate synthase = assay: Clavaminate synthase inhibition under standard assay conditions; type: biochemical, Streptomyces clavligerus
Text: These are commonly methyl or ethyl esters although others are possible.

VHL E3 ubiquitin ligase = target: T2, VHL E3 ubiquitin ligase (Homo sapiens, UniProt P40337); assay: VHL E3 interaction assay with 35S-labelled tat-ODD IVTT products; type: binding; settings: after modification by cell extracts
T2 construct: expressed in transfected cells; host or cells: 786-0 cells stably transfected with pcDNA3 VHL.HA (whole extract, anti-HA immunoprecipitation)
T2 sequence (P40337 whole entry): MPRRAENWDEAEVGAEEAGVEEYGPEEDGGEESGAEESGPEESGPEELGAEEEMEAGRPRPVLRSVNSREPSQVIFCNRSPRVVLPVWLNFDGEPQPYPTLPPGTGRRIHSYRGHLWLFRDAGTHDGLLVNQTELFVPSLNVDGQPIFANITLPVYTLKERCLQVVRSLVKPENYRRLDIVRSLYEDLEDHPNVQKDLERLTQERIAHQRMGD
T2 sequence (Q15370 whole entry partner): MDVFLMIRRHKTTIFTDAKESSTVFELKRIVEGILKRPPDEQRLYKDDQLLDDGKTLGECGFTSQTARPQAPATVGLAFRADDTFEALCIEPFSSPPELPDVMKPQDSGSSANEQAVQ
T2 sequence (Q15369 whole entry partner): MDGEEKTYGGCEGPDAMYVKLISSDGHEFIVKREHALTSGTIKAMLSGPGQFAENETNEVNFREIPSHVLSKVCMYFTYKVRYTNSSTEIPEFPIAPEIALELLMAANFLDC
T2 sequence (Q13617 whole entry partner): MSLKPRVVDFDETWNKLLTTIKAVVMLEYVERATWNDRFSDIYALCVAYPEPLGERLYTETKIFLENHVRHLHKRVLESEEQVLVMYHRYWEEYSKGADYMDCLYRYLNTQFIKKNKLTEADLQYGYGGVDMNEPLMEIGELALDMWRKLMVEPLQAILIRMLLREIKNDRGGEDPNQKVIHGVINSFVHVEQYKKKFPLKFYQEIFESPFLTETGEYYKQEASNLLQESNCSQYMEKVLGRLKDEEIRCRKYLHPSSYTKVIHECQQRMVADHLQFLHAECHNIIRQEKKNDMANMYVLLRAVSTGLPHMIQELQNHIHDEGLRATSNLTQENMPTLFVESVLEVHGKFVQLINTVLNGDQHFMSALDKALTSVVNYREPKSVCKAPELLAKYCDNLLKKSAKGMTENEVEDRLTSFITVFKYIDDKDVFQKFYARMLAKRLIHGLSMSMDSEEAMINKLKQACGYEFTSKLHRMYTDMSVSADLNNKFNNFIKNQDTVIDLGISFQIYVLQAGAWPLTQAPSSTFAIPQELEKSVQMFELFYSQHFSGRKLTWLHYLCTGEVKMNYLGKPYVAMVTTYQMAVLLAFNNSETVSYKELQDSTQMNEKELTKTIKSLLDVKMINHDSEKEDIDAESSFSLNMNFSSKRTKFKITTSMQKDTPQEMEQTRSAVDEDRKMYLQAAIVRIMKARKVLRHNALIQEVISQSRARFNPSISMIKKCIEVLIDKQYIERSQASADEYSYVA
T2 sequence (P62877 whole entry partner): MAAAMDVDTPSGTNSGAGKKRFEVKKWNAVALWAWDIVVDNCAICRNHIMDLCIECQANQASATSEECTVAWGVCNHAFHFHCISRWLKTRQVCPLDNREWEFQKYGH
Text: Concordant with the ubiquitination assays discussed above NODD (HIF-1α 343-417) and CODD (HIF-1α 549-582) polypeptides, but not their corresponding proline mutants (HIF-1α 343-417/P402A and HIF-1α 549-582/P564G), bound to VHL E3 ubiquitin ligase after modification by cell extracts. The ^35S-methionine labelled recombinant polypeptides therefore interacted with VHL, supporting the results of the ubiquitination experiments discussed above. The interaction was enhanced by the presence of cell extracts which promote hydroxylation of the prolines at positions 402 and 564 ^19. In contrast, no binding occurred using peptides in which prolines were mutated.
For VHL E3 interaction assays ^35S-methionine labelled HIF-1a substrates were prepared by transcription/translation using TnT7 rabbit reticulocyte lysate (Promega). 100 μM DFO was added to the reaction to suppress prolyl hydroxylase activity of the reticulocyte lysate. Substrate modification was achieved by incubation of HIF-1α translate with RCC4 cell lysate in the presence of ferrous chloride (100 μM). Interaction with VHL E3 was analysed as described previously ^21.

U2OS and Hep3B cells = assay: HRE-dependent luciferase reporter assay after transient transfection of NODD/CODD plasmids; type: cell-based, human; settings: normoxic conditions, 24 hours
Text: Since normoxic HIFα degradation is saturable ^17 and depends on sub-regions within the ODD we tested whether peptides encoding the HIF-1α amino terminal ODD (NODD) and carboxy terminal ODD (CODD) ^21 could affect HIF activity as measured by hypoxia response element (HRE)-dependent reporter gene expression. Briefly, Degradation is prevented by the NODD and CODD polypeptides competing for prolyl hydroxylation and/or VHL binding, thereby blocking subsequent ubiquitination. We constructed plasmids encoding NODD (HIF-1-α aa 343-417) or CODD (HIF-1-α aa 549-582) linked to nuclear localisation sequences and a c-myc epitope tag. These plasmids were transiently co-transfected into U2OS and Hep3B cells with an HRE-dependent luciferase reporter plasmid. […]
For reporter gene assays DNA fragments encoding HIF-1α amino acids 343-417, 380-417, 390-417, 390-410, 343-400, 530-95, 530-82, 549-82, 556-74 and 530-62 were generated by PCR using oligonucleotides containing 5′ SacII or 3′ AscI sites and inserted into a pCMV/myc/nuc (Invitrogen) derivative bearing these sites in frame with the NLS and epitope tag. […] To generate tet-operator dependent plasmids the open reading frames from the aa343-417 and aa549-82 constructs were subcloned into pUHD 10 ^34. […]

U2OS cells = U2OS cells stably transfected with doxycycline-inducible NODD or CODD; type: cell-based, human; settings: doxycycline 0.2-3.2 μg/ml, peaking after 48 hours
Description: To explore further the therapeutic potential of NODD and CODD polypeptides to activate endogenous HIF we stably transfected U2OS cells with doxycycline-inducible NODD (doxNODD) and CODD constructs (doxCODD) encoding identical sequences to those used for transient transfections.
Cells stably transfected with NODD or CODD controlled by the tetracycline-inducible system were exposed to doxycycline. Cell extracts were prepared 0, 16, 24 and 48 hours after exposure to doxycycline. The extracts of doxNODD (HIF-1α aa343-417), doxCODD (HIF-1α aa549-82) and control cells (empty vector) were then immunoblotted for HIF-1α protein. Increased HIF-1α signals were detected from 16-48 hours following doxycycline administration in doxNODD and doxCODD cells but not in empty vector cells. Levels of HIF-1α induced by hypoxia were also measured for comparison. The endogenous HIF-1α induction was doxycycline dose (0.2-3.2 μg/ml) and time dependent, peaking after 48 hours. Maximal levels were about 20% and about 70% of HIF-1α levels seen following hypoxic or DFO treatment of the doxNODD and doxCODD cells respectively. […]
Stably transfected cell lines were generated by transfecting U2OS cells bearing the reverse tetracycline responsive transactivator ^34 and the tetKRAB silencer construct ^36 with pUHD/HIF plasmids. Following selection in G418 (1 mg/ml) individual colonies were picked. DoxNODD (F21) and doxCODD (myc19) clones expressed pUHD/HIF-1aa343-417/3NLS/c-myc and pUHD/HIF-1α aa549-82/3NLS/c-myc respectively. […]
Cell extracts were prepared in buffer (8M urea, 10% glycerol, 1% SDS, 5 mM DTT, 10 mM Tris/pH 6.8), separated by SDS-PAGE and transferred to Immobilon-P membrane (Millipore). Primary antibodies against HIF-1α, c-myc tag and HA tag were from Transduction Laboratories, Innogenex and Roche Molecular respectively. […]

| Molecule | inhibitory activity on HIF-1α modification, comparison of enantiomers ([1]; 0-2000 μM, RCC4 cell extract) | inhibition of worm extract activity promoting HIF-1/HA.VHL-1 interaction [2] | inhibition of HIF hydroxylase / HPH [3] | inhibition of HIF hydroxylase / HPH ([3]; listed as (S) oxaloalanine) | pVHL binding after treatment with cell extract in the presence of inhibitor ([1]; 1 mM) | pVHL binding after treatment with cell extract in the presence of inhibitor ([1]; 5 mM) | inhibition of clavaminate synthase (clavaminate synthase) | binding to VHL E3 ubiquitin ligase (VHL E3 ubiquitin ligase) | HRE-dependent relative luciferase activity (U2OS and Hep3B cells) | Maximal HIF-1α level relative to hypoxic or DFO treatment (U2OS cells) |
| --- | --- | --- | --- | --- | --- | --- | --- | --- | --- | --- |
| C[C@H](NC(=O)C(=O)O)C(=O)O [N-oxalyl-2S-alanine] | higher inhibitory activity | strongly inhibited activity | act as inhibitors | preferred inhibitor | – | – | – | – | – | – |
| O=C(O)CNC(=O)CCS [N-(Mercaptopropionyl)glycine] | – | – | inhibitors of HPH | – | strong binding of pVHL | reduced the amount of pVHL binding | not an inhibitor | – | – | – |
| B1 | – | – | – | – | – | – | – | bound | increased relative luciferase activity | about 20% |

From patent publication US9844546B2, “Antibody against human HIF hydroxylase” (OXFORD UNIVERSITY INNOVATION LIMITED, priority 2001, dated 2017)
